Data as given in patent US10799605B2 (3B PHARMACEUTICALS GMBH, priority 2014, dated 2020).

Experiments:
[1] = target: T1, NTR1 (Homo sapiens (Human), UniProt P30989); test: Functional Ca2+ mobilisation assay (example part II); assay type: cell-based; details: antagonist assay
Source text: (§1) Ca^2+ ions are usually kept at nanomolar levels in the cytosol of cells, and act in a number of signal transduction pathways as second messengers. […] Changes in calcium ion concentration in standard assay protocols can be readily detected with fluorescent dyes that emit light when changes in intracellular Ca2^+ ion concentration occur. Given the transient nature of these responses, they are often read with instrumentation that has ‘inject and read’ capability.
(§2) HT29 or NTR1-expressing HEK293 cells were trypsinized and seeded into black flat clear-bottom 96-well plates (Corning, Amsterdam, The Netherlands) at 6×10^5 cells per well. After 24 h incubation at 37° C. and 5% CO2, cells were washed twice with wash buffer (130 mM NaCl, 5 mM KCl, 10 mM Hepes, 2 mM CaCl2, 10 mM Glucose, pH 7.4) and loaded with 100 μl of Ca5 dye (Molecular Devices, Biberach, Germany) for 1 h at 37° C. and 5% CO2. For agonist assays, serial dilutions of agonistic substances were added to the cells loaded with dye and the change of the fluorescent signal was recorded continually for approx. 90 s using a FlexStation II (Molecular Devices, Biberach, Germany). Addition of wash buffer served as a control. Thus, EC50 concentrations for each compound were computed and provided a measure for the potency of the substance. For antagonist assays, cells loaded with 100 μl of Ca5-dye were pre-incubated with serial dilutions of antagonistic substances for 30 min, before the EC80-concentration of agonist was added to the cells and the change of the fluorescent signal was recorded continually for approx. 90 s. Thus, IC50 concentrations were computed for each compound and provided a measure for the inhibitory activity of the compounds at the NTR1.

[2] = target: T1, NTR1; test: Radioligand binding assay NTR1 (example part II); details: 0.05 nM 125I-(Tyr3-neurotensin), 60 min at 4° C.; read-out: IC50 [nM] RLB
Experimental: (§3) In order to determine the binding affinity of compounds comprising a radiolabel for NTR1, a radioligand binding assay was carried out. A radioligand is a radioactive biochemical substance that is used for diagnosis or for research-oriented study of cellular receptor systems of the body. In […] systems it is often used to quantify the binding of a test molecule to the binding site of radioligand. The higher the affinity of the molecule, the more radioligand is displaced from the binding site. The amount of bound radioligand can be measured by scintillation counting and thereby quantified. This assay is commonly used to calculate binding constants of molecules to receptors.
(§4) The NTR1 radioligand binding assay was performed by Cerep (Celle l'Evescault, France; Catalog reference 0109) according to Vita et al., FEBS Lett., 1993, 317, 139-142. NTR1 was prepared from CHO cells recombinantly expressing the human receptor and incubated with 0.05 nM ^125I-(Tyr^3-neurotensin) and serial dilutions of the test compounds. […] The result for each test compound is expressed as IC50 concentration and provides a measure for the affinity of the test compound for NTR1.

[3] = target: T1, NTR1; test: Functional Ca2+ mobilisation assay (example part I); assay type: cell-based; details: for shape of EC50 curve: agonist assay
Source text: as §1, with “Ca^2+” for “Ca2^+”
as §2, with “conjugate” for “compound”, “conjugates” for “compounds”

[4] = target: T1, NTR1; test: Radioligand binding assay NTR1 (example part I)
Experimental: as §3, §4

T1 sequence (P30989 whole entry): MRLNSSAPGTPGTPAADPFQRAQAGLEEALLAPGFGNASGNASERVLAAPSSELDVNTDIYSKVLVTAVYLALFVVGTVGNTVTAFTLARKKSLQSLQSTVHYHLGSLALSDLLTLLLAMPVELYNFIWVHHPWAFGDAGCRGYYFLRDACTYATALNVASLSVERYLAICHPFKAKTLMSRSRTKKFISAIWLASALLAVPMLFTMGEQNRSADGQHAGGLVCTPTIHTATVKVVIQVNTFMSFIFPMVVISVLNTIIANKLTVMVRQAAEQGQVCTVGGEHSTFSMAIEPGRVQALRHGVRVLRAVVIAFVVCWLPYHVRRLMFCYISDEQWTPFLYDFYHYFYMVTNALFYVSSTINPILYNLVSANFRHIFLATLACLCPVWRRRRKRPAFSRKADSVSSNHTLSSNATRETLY

Structure (SMILES) | IC50 [1] [nM] | IC50 [2] [nM] | EC50 [3] [nM] | IC50 [3] [nM] | shape of EC50 curve [3] | IC50 [4] [nM]
COc1cccc(OC)c1-c1cc(C(=O)NC2(C(=O)O)C3CC4CC(C3)CC2C4)nn1-c1ccc(C(=O)N(C)CCCN(C)CCCN(C)C(=O)CCC(=O)NCCCOCCOCCOCCCNC(=O)CN2CCN(CC(=O)O)CCN(CC(=O)O)CCN(CC(=O)O)CC2)cc1C(C)C (centres unmarked) [(IIIb), 2-{[1-(4-{[3-({3-[(DOTA-Ttds)-methyl-amino]-propyl}-methyl-amino)-propyl]-methyl-carbamoyl}-2-isopropyl-phenyl)-5-(2,6-dimethoxy-phenyl)-1H-pyrazole-3-carbonyl]-amino}-adamantane-2-carboxylic acid] | 16.6 | 5.2 | – | – | – | –
COc1cccc(OC)c1-c1cc(C(=O)NC2(C(=O)O)C3CC4CC(C3)CC2C4)nn1-c1ccc(C(=O)N(C)CCCN(C)CCCN(C)C(=O)CCCCCNC(=O)CN2CCN(CC(=O)O)CCN(CC(=O)O)CCN(CC(=O)O)CC2)cc1C(C)C (centres unmarked) [(IIIc), 2-{[1-(4-{[3-({3-[(DOTA-Ahx)-methyl-amino]-propyl}-methyl-amino)-propyl]-methyl-carbamoyl}-2-isopropyl-phenyl)-5-(2,6-dimethoxy-phenyl)-1H-pyrazole-3-carbonyl]-amino}-adamantane-2-carboxylic acid] | 11.8 | 5.7 | – | – | – | –
CNCCCN(C)CCCN(C)C(=O)c1ccc(-n2nc(C(=O)NC3(C(=O)O)C4CC5CC(C4)CC3C5)cc2-c2c(OC)cccc2OC)c(C(C)C)c1 (centres unmarked) [(III), 2-({5-(2,6-Dimethoxy-phenyl)-1-[2-isopropyl-4-(methyl-{3-[methyl-(3-methylamino-propyl)-amino]-propyl}-carbamoyl)-phenyl]-1H-pyrazole-3-carbonyl}-amino)-adamantane-2-carboxylic acid] | 7.54 | 0.87 | – | – | – | –
COc1cccc(OC)c1-c1cc(C(=O)NC2(C(=O)O)C3CC4CC(C3)CC2C4)nn1-c1ccc(C(=O)N(C)CCCN(C)CCCN(C)C(=O)CCCC(=O)NCCCOCCOCCOCCCNC(=O)CCC(=O)N[C@@H](CCCCNC(=O)CN2CCN(CC(=O)O)CCN(CC(=O)O)CCN(CC(=O)O)CC2)C(=O)NCCCOCCOCCOCCCNC(=O)CCC(=O)NCCCC(=O)N[C@H](CCCNC(=N)N)C(=O)N[C@@H](CCCNC(=N)N)C(=O)N2CCC[C@H]2C(=O)N[C@@H](Cc2ccc(O)cc2)C(=O)N[C@H](C(=O)N[C@@H](CC(C)C)C(=O)O)C(C)(C)C)cc1C(C)C (stereo partly drawn) [(17), 1206-Glutar-Ttds-Lys(DOTA)-Ttds-GABA-arg-Arg-Pro-Tyr-Tle-Leu-OH] | – | – | 7 | 3.4 | bell-shaped EC50 curves | 0.32
COc1cccc(OC)c1-c1cc(C(=O)NC2(C(=O)O)C3CC4CC(C3)CC2C4)nn1-c1ccc(C(=O)N(C)CCCN(C)CCCN(C)C(=O)CCCC(=O)NCCCC[C@H](NC(=O)CCC(=O)NCCCOCCOCCOCCCNC(=O)CCC(=O)NCCCOCCOCCOCCCNC(=O)CCC(=O)NCCCOCCOCCOCCCNC(=O)[C@H](CCCCNC(=O)CN2CCN(CC(=O)O)CCN(CC(=O)O)CCN(CC(=O)O)CC2)NC(=O)CCC(=O)NCCCOCCOCCOCCCNC(=O)CCC(=O)NCCCOCCOCCOCCCNC(=O)CCC(=O)NCCCOCCOCCOCCCNC(=O)CCCNC(=O)[C@@H](NC(=O)[C@H](CCCNC(=N)N)NC(=O)[C@H](C)NC(=O)[C@@H](NC(=O)[C@H](CCCCN)NC(=O)[C@H](CCC(N)=O)NC(=O)[C@H](C)NC(=O)[C@H](CC(C)C)NC(=O)[C@@H](NC(=O)[C@H](CCC(N)=O)NC(=O)[C@H](CC(C)C)NC(=O)[C@H](CC(=O)O)NC(=O)CNC(=O)[C@H](CCCNC(=N)N)NC(=O)[C@H](CC(C)C)NC(=O)[C@H](CC(N)=O)NC(=O)[C@@H]2CCCN2C(=O)[C@@H](NC(=O)[C@H](C)NC(=O)[C@H](CC(N)=O)NC(C)=O)C(C)C)C(C)C)C(C)C)[C@@H](C)O)C(N)=O)cc1C(C)C (some centres unmarked) [(22)] | – | – | > 50000 | 21 | – | 9.1
COc1cccc(OC)c1-c1cc(C(=O)NC2(C(=O)O)C3CC4CC(C3)CC2C4)nn1-c1ccc(C(=O)N(C)CCCN(C)CCCN(C)C(=O)CCCC(=O)NCCCOCCOCCOCCCNC(=O)CCC(=O)N[C@@H](CCCCNC(=O)CN2CCN(CC(=O)O)CCN(CC(=O)O)CCN(CC(=O)O)CC2)C(=O)NCCCOCCOCCOCCCNC(=O)CCC(=O)NCCCC(=O)N[C@@H](CCCNC(=N)N)C(=O)N[C@@H](CCCNC(=N)N)C(=O)N2CCC[C@H]2C(=O)N[C@@H](Cc2ccc(O)cc2)C(=O)N[C@H](C(=O)N[C@@H](CC(C)C)C(=O)O)C(C)(C)C)cc1C(C)C (stereo partly drawn) [(16), 1206-Glutar-Ttds-Lys(DOTA)-Ttds-GABA-Arg-Arg-Pro-Tyr-Tle-Leu-OH] | – | – | 4 | 3.8 | bell-shaped EC50 curves | 0.14
COc1cccc(OC)c1-c1cc(C(=O)NC2(C(=O)O)C3CC4CC(C3)CC2C4)nn1-c1ccc(C(=O)N(C)CCCN(C)CCCN(C)C(=O)CCN2C(=O)CC(SC[C@H](NC(=O)CCC(=O)NCCCOCCOCCOCCCNC(=O)CCC(=O)NCCCOCCOCCOCCCNC(=O)CCC(=O)NCCCOCCOCCOCCCNC(=O)[C@H](CCCCNC(=O)CN3CCN(CC(=O)O)CCN(CC(=O)O)CCN(CC(=O)O)CC3)NC(=O)CCC(=O)NCCCOCCOCCOCCCNC(=O)CCC(=O)NCCCOCCOCCOCCCNC(=O)CCC(=O)NCCCOCCOCCOCCCNC(=O)CCCNC(=O)[C@@H](NC(=O)[C@H](CCCNC(=N)N)NC(=O)[C@H](C)NC(=O)[C@@H](NC(=O)[C@H](CCCCN)NC(=O)[C@H](CCC(N)=O)NC(=O)[C@H](C)NC(=O)[C@H](CC(C)C)NC(=O)[C@@H](NC(=O)[C@H](CCC(N)=O)NC(=O)[C@H](CC(C)C)NC(=O)[C@H](CC(=O)O)NC(=O)CNC(=O)[C@H](CCCNC(=N)N)NC(=O)[C@H](CC(C)C)NC(=O)[C@H](CC(N)=O)NC(=O)[C@@H]3CCCN3C(=O)[C@@H](NC(=O)[C@H](C)NC(=O)[C@H](CC(N)=O)NC(C)=O)C(C)C)C(C)C)C(C)C)[C@@H](C)O)C(N)=O)C2=O)cc1C(C)C (some centres unmarked) [(23)] | – | – | > 50000 | 15 | – | 6.7
COc1cccc(OC)c1-c1cc(C(=O)NC2(C(=O)O)C3CC4CC(C3)CC2C4)nn1-c1ccc(C(=O)N(C)CCCN(C)CCCN(C)C(=O)CCCC(=O)NCCCOCCOCCOCCCNC(=O)CCC(=O)NCCCOCCOCCOCCCNC(=O)CCC(=O)NCCCOCCOCCOCCCNC(=O)CCC(=O)N[C@@H](CC(N)=O)C(=O)N[C@@H](C)C(=O)N[C@H](C(=O)N2CCC[C@H]2C(=O)N[C@@H](CC(N)=O)C(=O)N[C@@H](CC(C)C)C(=O)N[C@@H](CCCNC(=N)N)C(=O)NCC(=O)N[C@@H](CC(=O)O)C(=O)N[C@@H](CC(C)C)C(=O)N[C@@H](CCC(N)=O)C(=O)N[C@H](C(=O)N[C@@H](CC(C)C)C(=O)N[C@@H](C)C(=O)N[C@@H](CCC(N)=O)C(=O)N[C@@H](CCCCN)C(=O)N[C@H](C(=O)N[C@@H](C)C(=O)N[C@@H](CCCNC(=N)N)C(=O)N[C@H](C(=O)NCCCC(=O)NCCCOCCOCCOCCCNC(=O)CCC(=O)N[C@@H](CCCCNC(=O)CN2CCN(CC(=O)O)CCN(CC(=O)O)CCN(CC(=O)O)CC2)C(N)=O)[C@@H](C)O)C(C)C)C(C)C)C(C)C)cc1C(C)C (some centres unmarked) [(24)] | – | – | > 50000 | 38 | – | 9.9
